The assay relates to Rabbit Heart. Nature of the assay: Imaging of rabbit heart (scintillation camera, intravenous injection). The assay is classed as in vivo. The following applies: 2 mCi i.v., 2.5 Kg male New Zealand Albino rabbit, approximately 10 minutes after injection. As for the experimental part:
2 mCi of Thallium-201 (as thallous chloride in physiological saline containing 0.9% benzyl alcohol) is injected intravenously into a 2.5 Kg male New Zealand Albino rabbit. The rabbit is positioned under a Searle Pho-Gamma scintillation camera in such a way that the heart and lung area are covered by the field of view.
Greater than 1 mCi of the ^99m Tc-labelled product of Example 3 is injected into a rabbit and imaged as in Example 16.

Take Thallium-201: the “image of the heart (reference Tl-201)” value is “sufficient counts are accumulated to produce an image of the heart analogous to that seen in clinical studies of humans”.

The record behind these values is patent US4451450A, “Cationic compounds useful for making radiodiagnostic agents” (New England Nuclear Corporation, priority 1981, dated 1984).
